Results from ChEMBL document CHEMBL5154803, “Spermine-Conjugated Short Proline-Rich Lipopeptides as Broad-Spectrum Intracellular Targeting Antibacterial Agents” (J Med Chem, 2022).
≈ marks a conversion by molar mass, not a printed value. Calls of active or inactive are those of the source. No cut-off for these calls is given here. Where a SMILES comes first, the peptide text is derived from it. The star is where a group is joined. Lauroyl = CCCCCCCCCCCC(=O)*; Decanoyl = CCCCCCCCCC(=O)*; Spermine = NCCCNCCCCNCCCN*

Experiments:
Pseudomonas aeruginosa = test: Antibacterial activity against Pseudomonas aeruginosa ATCC BAA-427 assessed as reduction in bacterial growth measured after 18 hrs by broth microdilution method; type: functional
Staphylococcus aureus [1] = test: Synergistic antibacterial activity against MDR-methicillin-resistant Staphylococcus aureus ATCC BAA-44 assessed as fold change in chloramphenicol MIC by checkerboard assay; type: functional
Cell membrane [2] = test: Disruption of bacterial cell membrane in Escherichia coli ATCC 25922 assessed as proportion of bacteria with intact cell membrane at 5X MIC incubated for 1 hr by PI staining based flow cytometric analysis (reference value: 99.3%); type: subcellular
Staphylococcus aureus [3] = test: Antibacterial activity against Staphylococcus aureus ATCC 25923 assessed as reduction in bacterial growth measured after 18 hrs by broth microdilution method; type: functional
Cell membrane [4] = test: Disruption of bacterial cell membrane in Escherichia coli ATCC 25922 assessed as proportion of bacteria with damaged cell membrane at 5X MIC incubated for 1 hr by PI staining based flow cytometric analysis (reference value: 0.7%); type: subcellular
trypsin = trypsin (Homo sapiens, UniProt P07477+P07478+P35030); test: Stability of compound assessed as trypsin (unknown origin)-mediated compound degradation by measuring parent compound remaining at 150 uM measured upto 4 hrs by RP-HPLC method; type: ADME, protein assay; conditions: read-out: Stability
Staphylococcus aureus [5] = test: Synergistic antibacterial activity against MDR-methicillin-resistant Staphylococcus aureus ATCC BAA-44 assessed as chloramphenicol MIC by checkerboard assay; type: functional
Acinetobacter baumannii = test: Antibacterial activity against Acinetobacter baumannii i ATCC 19606 assessed as reduction in bacterial growth measured after 18 hrs by broth microdilution method; type: functional
Cell membrane [6] = test: Disruption of bacterial cell membrane in Escherichia coli ATCC 25922 assessed as blebbing on the surface of the bacteria at 5XMIC by SEM analysis; type: subcellular
Staphylococcus aureus [7] = test: Antibacterial activity against methicillin-resistant Staphylococcus aureus ATCC 33591 assessed as reduction in bacterial growth measured after 18 hrs by broth microdilution method; type: functional
[8] = Cytotoxicity against human THP-1 cells assessed as cell viability at 100 uM by MTT assay; type: toxicity, cell-based; conditions: read-out: Activity
Staphylococcus aureus [9] = test: Additive antibacterial activity against MDR-methicillin-resistant Staphylococcus aureus ATCC BAA-44 assessed as fractional inhibitory concentration index in presence of rifampicin by checkerboard assay; type: functional
Cell membrane [10] = test: Disruption of bacterial cell membrane in Escherichia coli ATCC 25922 assessed as proportion of bacteria with intact cell membrane at 1X MIC incubated for 1 hr by PI staining based flow cytometric analysis (reference value: 99.3%); type: subcellular
[11] = test system: Staphylococcus epidermidis; test: Antibacterial activity against Staphylococcus epidermidis ATCC 12228 assessed as reduction in bacterial growth measured after 18 hrs by broth microdilution method; type: functional
Staphylococcus aureus [12] = test: Additive antibacterial activity against MDR-methicillin-resistant Staphylococcus aureus ATCC BAA-44 assessed as fractional inhibitory concentration index in presence of chloramphenicol by checkerboard assay; type: functional
Staphylococcus aureus [13] = test: Additive antibacterial activity against MDR-methicillin-resistant Staphylococcus aureus ATCC BAA-44 assessed as chloramphenicol MIC by checkerboard assay; type: functional
Staphylococcus aureus [14] = test: Additive antibacterial activity against MDR-methicillin-resistant Staphylococcus aureus ATCC BAA-44 assessed as fold change in chloramphenicol MIC by checkerboard assay; type: functional

Compound	MIC (Pseudomonas aeruginosa) [µM]	fold change (FC) (Staphylococcus aureus [1])	Activity (Cell membrane [2]) [%]	MIC (Staphylococcus aureus [3]) [µM]	Activity (Cell membrane [4]) [%]	remaining at 4 h, 150 µM (trypsin) [%]	MIC (Staphylococcus aureus [5]) [µg/mL]	MIC (Acinetobacter baumannii) [µM]	Activity (Cell membrane [6])	MIC (Staphylococcus aureus [7]) [µM]	viability at 100 µM [8] [%]	fractional inhibitory concentration index (FICI) (Staphylococcus aureus [9])	Activity (Cell membrane [10]) [%]	MIC [11] [µM]	fractional inhibitory concentration index (FICI) (Staphylococcus aureus [12])	MIC (Staphylococcus aureus [13]) [µg/mL]	fold change (FC) (Staphylococcus aureus [14])
CCCCCCCCCCCC(=O)N1CCC[C@H]1C(=O)N[C@@H](CCCNC(=N)N)C(=O)N1CCC[C@H]1C(=O)N[C@@H](CCCNC(=N)N)C(=O)N1CCC[C@H]1C(=O)N1CCC[C@H]1C(=O)N[C@@H](CCCNC(=N)N)C(=O)NCCCNCCCCNCCCN (Lauroyl-PRPRPPR-Spermine)	6.2 (≈ 7.7 µg/mL)	4	72.7	1.5 (≈ 1.86 µg/mL)	27.3	> 80	250	6.2 (≈ 7.7 µg/mL)	Active	1.5 (≈ 1.86 µg/mL)	65	1	92.9	1.5 (≈ 1.86 µg/mL)	–	–	–
CCCCCCCCCC(=O)N1CCC[C@H]1C(=O)N[C@@H](CCCNC(=N)N)C(=O)N1CCC[C@H]1C(=O)N[C@@H](CCCNC(=N)N)C(=O)N1CCC[C@H]1C(=O)N1CCC[C@H]1C(=O)N[C@@H](CCCNC(=N)N)C(=O)NCCCNCCCCNCCCN (Decanoyl-PRPRPPR-Spermine)	6.2 (≈ 7.52 µg/mL)	1	90.4	3.1 (≈ 3.76 µg/mL)	9.56	> 80	1000	6.2 (≈ 7.52 µg/mL)	–	3.1 (≈ 3.76 µg/mL)	80	0.625	93.9	1.5 (≈ 1.82 µg/mL)	2	1000	1
